The source of these data is article PMC5520944 (Cell Death & Disease, 2017).

This assay deals with L929sAhFas. Kind of assay: cells. On the set-up: high-content necroptosis screen, percentage PI-positive nuclei as percent of DMSO plus stimulus control. An excerpt:
To identify novel inhibitors or regulators of necroptosis, 500 small compounds from libraries targeting autophagy, kinases, phosphatases, proteases and redox balance were screened for their ability to block TNF-induced necroptosis in murine L929sAhFas cells. Three conditions were used to induce necroptosis in L929 cells: TNF alone, TNF+TAK1 inhibitor (TAK1i) and TNF+zVAD-fmk, a pan-caspase inhibitor. Inhibition of TAK1 or caspases sensitizes to necroptosis.[13], [32] Necroptosis, measured as the percentage of PI-positive nuclei normalized to the plate-specific DMSO control, was determined for each compound (Supplementary Figure 1A). […] After compound treatment, L929sAhFas (a) or L929 (b) cells were stimulated with mTNF (T), mTNF+Tak1i (TiT) or mTNF+zVAD (zVT) (Supplementary Figure 1A and B). (a) Cell death percentage (% PI-positive nuclei) or cell loss was calculated as percent of control (DMSO+stimulus). […] (b) Cell loss (luminescence-based readout for ATP) was calculated as percent of control (DMSO+stimulus). […] In stimulated conditions, % PI-positive nuclei was determined as % of DMSO control. Data represent mean values±S.E.M. of two independent experiments. Cells were stained with Hoechst and PI and percentage PI-positive nuclei was determined using high-content image analysis (BD pathway Bioimager). (d) L929sAhFas cells were treated with Sorafenib (concentration as indicated) for 24 h. Then, stimulus was removed, 50 cells/condition seeded and colonies counted with crystal violet staining after 10 days incubation. […] Schemes of workflow screening assays in L929 cell lines. (A) Scheme of the workflow of a high-content screening assay on L929sAhFas cells using mTNF (T) and mTNF+Tak1i ((5Z)-7-Oxozeaenol) (TiT) to induce necroptotic cell death. Nec-1 and zVAD-fmk were used as protective and sensitizing benchmarks, respectively, on all plates. (B) Scheme of the workflow of a CellTiter-Glo luminescent cell viability screening assay on L929 cells using mTNF+zVAD (zVT) to induce necroptotic cell death. Supplementary Figure S2. Z’ calculation for cell death screening assays in L929 cells. (A) Z’ calculation for cell death screening assay (Fig. 1A) in mTNF-stimulated L929sAhFas cells. (B) Z’ calculation for cell death screening assay (Fig. 1A) in L929sAhFas cells stimulated with mTNF + Taki.

Where [1] appears, read: read-out: cell death TNF/Taki (POC).

Counter-ions that a name gives are not always drawn. Like-named read-outs stand apart in the source and are kept apart here.

`C[C@@H](N)[C@H]1CC[C@H](C(=O)Nc2ccncc2)CC1` [Y-27632·2HCl]: the activity at 10 µM reads like this: (read-out: cell death TNF (POC)) 93.3%; under setting [1], 98.6%.
The like results for `O=C1Cc2c([nH]c3ccc(Br)cc23)-c2ccccc2N1` [Kenpaullone] were, in that order, 162% and 99.9%.
The like results for `Cc1ccc(NC(=O)c2ccc(CN3CCN(C)CC3)cc2)cc1Nc1nccc(-c2cccnc2)n1` [Imatinib mesylate] were, in that order, 63.9% and 96.1%.
For `N#CC(C#N)=Cc1ccc([N+](=O)[O-])c(O)c1` [AG-126], the activity at 10 µM was found to be 94.7% (read-out: cell death TNF (POC)) and 99.4% under setting [1].
For `C/C(O)=C(\C#N)C(=O)Nc1cc(Br)ccc1Br` [LFM-A13], the activity at 10 µM is, setting by setting: (read-out: cell death TNF (POC)) 93.5%; under setting [1], 100%.
Taken in the same sequence, the figures for `N#C/C(=C\c1ccc(O)c(O)c1)C(N)=S` [TYRPHOSTIN 47] were 93% and 100%.
Taken in the same sequence, the figures for `O=P(O)(O)C(O)c1ccc2ccccc2c1` (centres unmarked) [HNMPA] were 80.3% and 100%.
On to `c1ccc2c(-c3ccncc3)c[nH]c2c1` [Rockout], for which the activity at 10 µM amounted to 106% (read-out: cell death TNF (POC)) and 99% under setting [1].
As to `N#CC(C#N)=Cc1cc(O)c(O)c(O)c1` [TYRPHOSTIN 25], the activity at 10 µM is, setting by setting: (read-out: cell death TNF (POC)) 90%; under setting [1], 100%.
As for `Cc1ccc(-c2nn(C(C)(C)C)c3ncnc(N)c23)cc1` [PP1], the activity at 10 µM is 114% (read-out: cell death TNF (POC)) and 100% under setting [1].
In the case of `C=CC(=O)c1ccc2ccccc2c1` [ZM 449829], the activity at 10 µM is, setting by setting: (read-out: cell death TNF (POC)) 87.3%; under setting [1], 99.6%.
Taken in the same sequence, the figures for `CC1=C(O)C(=O)[C@@H]2O[C@@H]2C1=O` [Terreic acid] were 104% and 99.1%.
As to `CCN(CC)CCNC(=O)c1c(C)[nH]c(/C=C2\C(=O)Nc3ccc(Cl)cc32)c1C` [SU11652], the activity at 10 µM runs as follows: (read-out: cell death TNF (POC)) 194%; under setting [1], 104%.
The like results for `O=S(=O)(c1cccc2c(Cl)cccc12)N1CCCNCC1` [ML-9·HCl] were, in that order, 84.8% and 99.8%.
The like results for `N#CC(=Cc1ccc2[nH]ccc2c1)C(N)=C(C#N)C#N` [AG-370] were, in that order, 86% and 99.7%.
The like results for `Cc1cc2ncc(-c3ccccc3)nc2cc1C` [TYRPHOSTIN AG 1295] were, in that order, 93.6% and 100%.
In the case of `O=C1Nc2ccccc2/C1=C1/Nc2ccccc2C1=O` [Indirubin], the activity at 10 µM came out at 91.7% (read-out: cell death TNF (POC)) and 99.1% under setting [1].
Taken in the same sequence, the figures for `N#CC(C#N)=Cc1cc(O)c(O)c([N+](=O)[O-])c1` [TYRPHOSTIN AG 1288] were 81.1% and 99.7%.
Taken in the same sequence, the figures for `Oc1ccc(-c2nc(-c3ccc(F)cc3)c(-c3ccncc3)[nH]2)cc1` [SB-202190] were 110% and 96.3%.
In the case of `N#CC(C#N)=C(N)/C(C#N)=C/c1ccc(O)cc1` [Tyrphostin AG112], the activity at 10 µM runs as follows: (read-out: cell death TNF (POC)) 89.4%; under setting [1], 98.7%.
The like results for `CC(C)c1cc(/C=C(\C#N)C(=O)NCCCc2ccccc2)cc(C(C)C)c1O` [SU1498] were, in that order, 91.7% and 99.2%.
The like results for `C[S+]([O-])c1ccc(-c2nc(-c3ccc(F)cc3)c(-c3ccncc3)[nH]2)cc1` (centres unmarked) [SB-203580] were, in that order, 108% and 99.6%.
As for `Nc1ncnc2c1c(I)cn2[C@@H]1O[C@H](CO)[C@@H](O)[C@H]1O` [5-Iodotubercidin], the activity at 10 µM (read-out: cell death TNF (POC)) was determined as 229% and the activity at 10 µM under setting [1] turned out to be 101%.
Taken in the same sequence, the figures for `N#C/C(=C\c1ccc(O)c(O)c1)C(N)=O` [TYRPHOSTIN 46] were 97.8% and 99.8%.
On to `O=S(=O)(c1cccc2c(I)cccc12)N1CCCNCC1` [ML-7·HCl], for which the activity at 10 µM (read-out: cell death TNF (POC)) was found to be 90.2% and the activity at 10 µM under setting [1] amounted to 99.4%.
The like results for `O=c1cc(N2CCOCC2)oc2c(-c3ccccc3)cccc12` [LY 294002] were, in that order, 85.7% and 99.2%.
The like results for `O=c1c(-c2ccc(O)cc2)coc2cc(O)cc(O)c12` [Genistein] were, in that order, 86.1% and 99.3%.
The like results for `COc1cccc(-c2cc(=O)c3ccccc3o2)c1N` [PD-98059] were, in that order, 70.9% and 98.9%.
Consider `COc1cc(/C=C(\C#N)C(N)=O)cc(CSc2nc3ccccc3s2)c1O` [AG-825], for which the activity at 10 µM reads like this: (read-out: cell death TNF (POC)) 80.1%; under setting [1], 99.4%.
Taken in the same sequence, the figures for `N#CC(C#N)=Cc1ccc(O)c(O)c1` [TYRPHOSTIN 23] were 88.9% and 100%.
Taken in the same sequence, the figures for `Cc1ccc(NC(=O)c2cccc(N(C)C)c2)cc1NC(=O)c1ccc(O)cc1` [ZM 336372] were 81.9% and 99.4%.
Taken in the same sequence, the figures for `N#CC(C#N)=C(N)/C(C#N)=C/c1cc(O)c(O)c(O)c1` [TYRPHOSTIN 51] were 116% and 101%.
For the compound `N#CC(=C(/N)Sc1ccccc1N)/C(C#N)=C(\N)Sc1ccccc1N` [U-0126], the activity at 10 µM (read-out: cell death TNF (POC)) came to 69.7% and the activity at 10 µM under setting [1] is 98.7%.
As to `O=C(O)c1ccc2nc(-c3ccccc3)c(-c3ccccc3)nc2c1` [BML-257], the activity at 10 µM was 91.3% (read-out: cell death TNF (POC)) and 99.7% under setting [1].
With `O=C(O)c1cc(N(Cc2ccccc2O)Cc2cc(O)ccc2O)ccc1O` [Lavendustin A], the activity at 10 µM (read-out: cell death TNF (POC)) is 85.9% and the activity at 10 µM under setting [1] is 100%.
`C#Cc1cccc(Nc2ncnc3cc(OC)c(OC)cc23)c1` [BML-265]: the activity at 10 µM is, setting by setting: (read-out: cell death TNF (POC)) 118%; under setting [1], 99.6%.
For `CC(C)(C)n1nc(-c2ccc(Cl)cc2)c2c(N)ncnc21` [PP2], the activity at 10 µM is, setting by setting: (read-out: cell death TNF (POC)) 127%; under setting [1], 100%.
The like results for `O=C1Nc2ccc(I)cc2/C1=C/c1cc(Br)c(O)c(Br)c1` [GW 5074] were, in that order, 90% and 99.1%.
Taken in the same sequence, the figures for `COc1cc2ncnc(Nc3cccc(Cl)c3)c2cc1OC` [TYRPHOSTIN AG 1478] were 84.2% and 98.7%.
Taken in the same sequence, the figures for `N#C/C(=C\c1cc(Cl)cc(Cl)c1)c1cccnc1` [RG-14620] were 95.9% and 99.8%.
For the compound `COC[C@H]1OC(=O)c2coc3c2[C@@]1(C)C1=C(C3=O)[C@@H]2CCC(=O)[C@@]2(C)C[C@H]1OC(C)=O` [Wortmannin], the activity at 10 µM is, setting by setting: (read-out: cell death TNF (POC)) 99.4%; under setting [1], 101%.
Regarding `Cn1cnc(N)c2ncnc1-2` [3-Methyladenine], the activity at 10 µM amounted to 88.7% (read-out: cell death TNF (POC)) and 102% under setting [1].
Take `O=c1c(O)c(-c2ccc(O)c(O)c2)oc2cc(O)cc(O)c12` [Quercetin·2H2O]: the activity at 10 µM came to 90.4% (read-out: cell death TNF (POC)) and 98.5% under setting [1].
